Results: ChEMBL document CHEMBL1201862, “PubChem BioAssay data set” (2004)
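Growth conditions: 96-well plates. Treatment: test compound, 48 hours, 5 concentrations. Analysis: linear interpolation between bracketing concentrations; unreached endpoints set to highest concentration. Here, GI50 denotes the concentration required for 50% inhibition of growth.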 Calls of active or inactive are those of the source. No stated cut-off is given here; in the data, active = GI50 up to about 1.1 µM and inactive = higher.

How the values were obtained:
Assay in all cases: NCI-60 cell line screen, 48 h
IGROV-1 = test system: IGROV-1
TK-10 = test system: TK-10
CAKI-1 = test system: CAKI-1
HT-29 = test system: HT-29
UACC-62 = test system: UACC-62
SF-268 = test system: SF-268
U-251 = test system: U-251
M14 = test system: M14
EKVX = test system: EKVX
HOP-18 = test system: HOP-18
COLO 205 = test system: COLO 205
A498 = test system: A498
CCRF-CEM = test system: CCRF-CEM
SR = test system: SR
SF-295 = test system: SF-295
Hs-578T = test system: Hs-578T
MDA-MB-435 = test system: MDA-MB-435
MCF7 = test system: MCF7
BT-549 = test system: BT-549
MDA-N = test system: MDA-N

SMILES	GI50 (IGROV-1)	GI50 (TK-10)	GI50 (CAKI-1)	GI50 (HT-29)	GI50 (UACC-62)	GI50 (SF-268)	GI50 (U-251)	GI50 (M14)	GI50 (EKVX)	GI50 (HOP-18)	GI50 (COLO 205)	GI50 (A498)	GI50 (CCRF-CEM)	GI50 (SR)	GI50 (SF-295)	GI50 (Hs-578T)	GI50 (MDA-MB-435)	GI50 (MCF7)	GI50 (BT-549)	GI50 (MDA-N)
O=C(N/C(=C\c1ccc(Br)cc1)c1nc2ccccc2s1)c1ccccc1	75.2 µM (inactive)	> 100 µM (inactive)	> 100 µM (inactive)	69.2 µM (inactive)	71 µM (inactive)	36.2 µM (inactive)	56 µM (inactive)	> 100 µM (inactive)	37.5 µM (inactive)	> 100 µM (inactive)	> 100 µM (inactive)	90.8 µM (inactive)	21.5 µM (inactive)							
C=C[C@@H](C)[C@]1(C(=O)OC)CCCC12OCCO2	> 100 µM (inactive)	> 100 µM (inactive)	> 100 µM (inactive)	> 100 µM (inactive)	> 100 µM (inactive)	> 100 µM (inactive)	> 100 µM (inactive)	> 100 µM (inactive)	> 100 µM (inactive)	> 100 µM (inactive)	> 100 µM (inactive)	> 100 µM (inactive)	> 100 µM (inactive)	68.5 µM (inactive)	> 100 µM (inactive)					
C=CCC1(C)CCCCC1(O)C[S+]([O-])c1ccccc1 (stereo not given)	> 100 µM (inactive)	> 100 µM (inactive)	> 100 µM (inactive)	> 100 µM (inactive)	> 100 µM (inactive)	> 100 µM (inactive)	> 100 µM (inactive)	> 100 µM (inactive)	> 100 µM (inactive)	> 100 µM (inactive)	> 100 µM (inactive)	> 100 µM (inactive)	> 100 µM (inactive)	> 100 µM (inactive)	> 100 µM (inactive)					
CCC1(O)C(=O)OCc2c1cc1n(c2=O)Cc2cc3c(N)cccc3nc2-1 (stereo not given) [RS-9-Aminocamptothecin]	0.327 µM (active)	3.02 µM (inactive)	< 0.01 µM (active)	0.118 µM (active)	< 0.01 µM (active)	< 0.01 µM (active)	< 0.0115 µM (active)	0.0174 µM (active)	1.2 µM (inactive)	0.0424 µM (active)	0.741 µM (active)	0.156 µM (active)	< 0.01 µM (active)	< 0.01 µM (active)	0.0102 µM (active)	3.65 µM (inactive)	0.0607 µM (active)	< 0.01 µM (active)	0.0668 µM (active)	0.182 µM (active)
CCOc1ccc(NC(=O)CC2SC(Nc3ccc(Cl)cc3)=NC2=O)cc1 (stereo not given)	> 100 µM (inactive)	> 100 µM (inactive)	21.5 µM (inactive)	> 100 µM (inactive)	> 100 µM (inactive)	> 100 µM (inactive)		> 100 µM (inactive)	> 100 µM (inactive)	> 100 µM (inactive)	> 100 µM (inactive)	44.8 µM (inactive)	18.3 µM (inactive)		> 100 µM (inactive)					
O=S(=O)(O)SC/C=C\CSS(=O)(=O)O	> 100 µM (inactive)	> 100 µM (inactive)	> 100 µM (inactive)	> 100 µM (inactive)	> 100 µM (inactive)	> 100 µM (inactive)	61.2 µM (inactive)	> 100 µM (inactive)	> 100 µM (inactive)	> 100 µM (inactive)	> 100 µM (inactive)	> 100 µM (inactive)		> 100 µM (inactive)	> 100 µM (inactive)					
O=c1ccc2ccc(O)c3c4c(O)ccc5ccc(=O)c(c1c23)c54	1.82 µM (inactive)	2.67 µM (inactive)		4.27 µM (inactive)	0.382 µM (active)		1.29 µM (inactive)	1.6 µM (inactive)	3.38 µM (inactive)	2.26 µM (inactive)	1.91 µM (inactive)		0.71 µM (active)		2.69 µM (inactive)					
O=C(NC1CCCCC1)NS(=O)(=O)c1ccc2c(c1)CCC2 [GLYHEXAMIDE]	> 100 µM (inactive)	> 100 µM (inactive)			> 100 µM (inactive)	> 100 µM (inactive)	> 100 µM (inactive)	> 100 µM (inactive)	> 100 µM (inactive)	> 100 µM (inactive)	> 100 µM (inactive)		> 100 µM (inactive)	> 100 µM (inactive)	> 100 µM (inactive)					
O=c1/c(=C/c2ccc3c(c2)OCO3)sc2nnc(Cc3ccccc3)n12	> 100 µM (inactive)	> 100 µM (inactive)	> 100 µM (inactive)		> 100 µM (inactive)	> 100 µM (inactive)	> 100 µM (inactive)	> 100 µM (inactive)	> 100 µM (inactive)	88.1 µM (inactive)	> 100 µM (inactive)	> 100 µM (inactive)	81.5 µM (inactive)		> 100 µM (inactive)					
CCCCCCCCCCCCC(SCCNC(=O)CCNC(=O)C(O)C(C)(C)COP(=O)(O)OP(=O)(O)OCC1OC(n2cnc3c(N)ncnc32)C(O)C1OP(=O)(O)O)C(=O)NCC(N)=O (stereo not given)	> 100 µM (inactive)	> 100 µM (inactive)		> 100 µM (inactive)	> 100 µM (inactive)	> 100 µM (inactive)	34.9 µM (inactive)	> 100 µM (inactive)	> 100 µM (inactive)	37.8 µM (inactive)	49.2 µM (inactive)	> 100 µM (inactive)	> 100 µM (inactive)		> 100 µM (inactive)					
CCOc1ccc(N2C(=O)C3c4[nH]c5ccccc5c4C4CCC(C(C)(C)C)CC4C3C2=O)cc1 (stereo not given)	> 100 µM (inactive)			32.1 µM (inactive)	> 100 µM (inactive)	> 100 µM (inactive)	> 100 µM (inactive)	> 100 µM (inactive)	> 100 µM (inactive)	> 100 µM (inactive)	36.1 µM (inactive)	> 100 µM (inactive)	10.3 µM (inactive)	42.8 µM (inactive)	> 100 µM (inactive)					
COC(=O)C1(C)C=C(Nc2ccccc2)C(=O)N1c1ccccc1 (stereo not given)	> 100 µM (inactive)	> 100 µM (inactive)	> 100 µM (inactive)	> 100 µM (inactive)	99.5 µM (inactive)	> 100 µM (inactive)	> 100 µM (inactive)	> 100 µM (inactive)	> 100 µM (inactive)	> 100 µM (inactive)			> 100 µM (inactive)		> 100 µM (inactive)					
COc1cc(O)c(C(=O)CC(C)=O)c(OC)c1	> 100 µM (inactive)	> 100 µM (inactive)	> 100 µM (inactive)	> 100 µM (inactive)	> 100 µM (inactive)	> 100 µM (inactive)	> 100 µM (inactive)	> 100 µM (inactive)	> 100 µM (inactive)	> 100 µM (inactive)	> 100 µM (inactive)		> 100 µM (inactive)		> 100 µM (inactive)					
CC(=O)N1CCc2[nH]c3ccccc3c2CC1	> 100 µM (inactive)	> 100 µM (inactive)	> 100 µM (inactive)	> 100 µM (inactive)	86.1 µM (inactive)		> 100 µM (inactive)	> 100 µM (inactive)	> 100 µM (inactive)	86.9 µM (inactive)	> 100 µM (inactive)	> 100 µM (inactive)	> 100 µM (inactive)		> 100 µM (inactive)					
